# Patent publication US20230219904A1 (SYNGENTA CROP PROTECTION AG, priority 2020, published 2023)
# Columns and labels:
# Format in all cases: in vivo
# Details in all cases: evaluated after 13 days
# [1] = system: Ipomoea hederacea (IPOHE); assay: Post-emergence herbicidal glasshouse test (Table B1)
# Method in brief: (§1)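 Spraying at 500 g/h unless indicated occurs either one day after sowing (pre-emergence) or after 8 days of cultivation (post-emergence). Percentage damage is then assessed after 13 days and binned as 5=80-100%, 4=60-79%, 3=40-59%, 2=20-39%, 1=0-19%.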
# Setaria faberi (SETFA) [2] = assay: as above
# Method in brief: as §1
# [3] = system: Amaranthus retoflexus (AMARE); assay: as above
# Method in brief: as §1
# [4] = system: Echinochloa crus-galh (ECHCG); assay: as above
# Method in brief: as §1
# [5] = system: Abutilon theophrasti (ABUTH); assay: as above
# Method in brief: as §1
# [6] = system: Ipomoea hederacea (IPOHE); assay: Pre-emergence herbicidal glasshouse test (Table B1)
# Method in brief: as §1
# Setaria faberi (SETFA) [7] = assay: as above
# Method in brief: as §1
# [8] = system: Amaranthus retoflexus (AMARE); assay: as above
# Method in brief: as §1
# [9] = system: Echinochloa crus-galh (ECHCG); assay: as above
# Method in brief: as §1
# [10] = system: Abutilon theophrasti (ABUTH); assay: as above
# Method in brief: as §1
SMILES,"POST Application IPOHE, percentage damage on five-point scale ([1]; applied at 500 g/h)","POST Application SETFA, percentage damage on five-point scale (Setaria faberi (SETFA) [2]; applied at 500 g/h)","POST Application AMARE, percentage damage on five-point scale ([3]; applied at 500 g/h)","POST Application ECHCG, percentage damage on five-point scale ([4]; applied at 500 g/h)","POST Application ABUTH, percentage damage on five-point scale ([5]; applied at 500 g/h)","PRE Application IPOHE, percentage damage on five-point scale ([6]; applied)","PRE Application SETFA, percentage damage on five-point scale (Setaria faberi (SETFA) [7]; applied at 500 g/h)","PRE Application AMARE, percentage damage on five-point scale ([8]; applied at 500 g/h)","PRE Application ECHCG, percentage damage on five-point scale ([9]; applied at 500 g/h)","PRE Application ABUTH, percentage damage on five-point scale ([10]; applied at 500 g/h)","POST Application IPOHE, percentage damage on five-point scale ([1]; applied at 125 g/ha)","POST Application SETFA, percentage damage on five-point scale (Setaria faberi (SETFA) [2]; applied at 125 g/ha)","POST Application AMARE, percentage damage on five-point scale ([3]; applied at 125 g/ha)","POST Application ECHCG, percentage damage on five-point scale ([4]; applied at 125 g/ha)","POST Application ABUTH, percentage damage on five-point scale ([5]; applied at 125 g/ha)","PRE Application IPOHE, percentage damage on five-point scale ([6]; applied at 125 g/ha)","PRE Application SETFA, percentage damage on five-point scale (Setaria faberi (SETFA) [7]; applied at 125 g/ha)","PRE Application AMARE, percentage damage on five-point scale ([8]; applied at 125 g/ha)","PRE Application ECHCG, percentage damage on five-point scale ([9]; applied at 125 g/ha)","PRE Application ABUTH, percentage damage on five-point scale ([10]; applied at 125 g/ha)"
CCC(CC)C(=O)Nc1c(OC(F)(F)F)ccc(C(=O)Nc2nnnn2CC)c1Cl [Compound 1.105],5 (5=80-100%),5 (5=80-100%),5 (5=80-100%),5 (5=80-100%),5 (5=80-100%),2 (2=20-39%),3 (3=40-59%),5 (5=80-100%),5 (5=80-100%),5 (5=80-100%),–,–,–,–,–,–,–,–,–,–
COCC(=O)Nc1c(OC(F)(F)F)ccc(C(=O)Nc2nnnn2C)c1Cl [Compound 1.130],4 (4=60-79%),5 (5=80-100%),5 (5=80-100%),5 (5=80-100%),5 (5=80-100%),1 (1=0-19%),1 (1=0-19%),5 (5=80-100%),2 (2=20-39%),4 (4=60-79%),–,–,–,–,–,–,–,–,–,–
CCC(=O)Nc1c(OC(F)(F)F)ccc(C(=O)Nc2nnnn2C)c1C(F)(F)F [Compound 1.082],–,–,–,–,–,–,–,–,–,–,4 (4=60-79%),4 (4=60-79%),4 (4=60-79%),3 (3=40-59%),4 (4=60-79%),3 (3=40-59%),4 (4=60-79%),5 (5=80-100%),5 (5=80-100%),5 (5=80-100%)
CC(=O)N(C)c1c(OC(F)(F)F)ccc(C(=O)Nc2nnc(C)o2)c1Cl [Compound 2.003],5 (5=80-100%),5 (5=80-100%),5 (5=80-100%),5 (5=80-100%),5 (5=80-100%),4 (4=60-79%),5 (5=80-100%),5 (5=80-100%),5 (5=80-100%),5 (5=80-100%),–,–,–,–,–,–,–,–,–,–
Cn1nnnc1NC(=O)c1ccc(OC(F)F)c(NC(=O)CC2CC2)c1Cl [Compound 1.036],–,–,–,–,–,–,–,–,–,–,4 (4=60-79%),5 (5=80-100%),5 (5=80-100%),5 (5=80-100%),5 (5=80-100%),4 (4=60-79%),5 (5=80-100%),5 (5=80-100%),5 (5=80-100%),5 (5=80-100%)
CCC(=O)Nc1c(OC(F)(F)F)ccc(C(=O)Nc2nnnn2CC)c1Cl [Compound 1.119],5 (5=80-100%),5 (5=80-100%),5 (5=80-100%),5 (5=80-100%),5 (5=80-100%),4 (4=60-79%),2 (2=20-39%),5 (5=80-100%),5 (5=80-100%),5 (5=80-100%),–,–,–,–,–,–,–,–,–,–
